Results from patent US20230416228A1 (Forkhead Biotherapeutics, Inc., priority 2020, published 2023).

biological target: T1, human FOXO1 (constitutively active form Thr24Ala, Ser256Ala, Ser319Ala) (Homo sapiens, UniProt Q12778, S256A/S319A/T24A); assay: FOXO1 inhibitor activity assay: cell-based transcriptional (luciferase) reporter assay in HEK293 cells; details: HEK293 cells transfected with insulin response element firefly luciferase reporter, FOXO1 and Renilla luciferase; 10-point dose response 50 μM to 2.5 nM; 24 hours
T1 construct: expressed in transfected cells; host or cells: HEK293 cells transfected with pcDNA3.1 plasmid
T1 sequence (Q12778 whole entry T24A/S256A/S319A): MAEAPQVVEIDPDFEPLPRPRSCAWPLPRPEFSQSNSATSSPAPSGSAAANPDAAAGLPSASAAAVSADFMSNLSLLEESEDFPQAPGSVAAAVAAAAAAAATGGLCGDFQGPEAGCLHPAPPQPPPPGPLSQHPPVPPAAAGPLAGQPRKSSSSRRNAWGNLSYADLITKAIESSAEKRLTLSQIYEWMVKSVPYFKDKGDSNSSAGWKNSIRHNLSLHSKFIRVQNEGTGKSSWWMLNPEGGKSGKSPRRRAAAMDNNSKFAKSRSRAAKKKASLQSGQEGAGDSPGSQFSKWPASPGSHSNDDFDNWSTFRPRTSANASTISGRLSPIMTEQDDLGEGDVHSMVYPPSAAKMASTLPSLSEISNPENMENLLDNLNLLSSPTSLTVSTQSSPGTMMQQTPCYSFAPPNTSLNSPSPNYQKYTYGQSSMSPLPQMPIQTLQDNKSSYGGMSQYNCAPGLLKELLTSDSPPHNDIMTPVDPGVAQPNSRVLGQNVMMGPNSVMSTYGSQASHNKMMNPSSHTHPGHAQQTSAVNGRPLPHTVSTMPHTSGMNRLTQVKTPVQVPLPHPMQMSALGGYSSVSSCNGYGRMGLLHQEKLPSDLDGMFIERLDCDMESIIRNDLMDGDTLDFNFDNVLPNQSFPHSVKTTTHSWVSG
Method in brief: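 IC50 and maximal inhibition were fitted by 4-parameter logistic regression on normalized firefly/Renilla luciferase ratios. The 0% reference used RFP in place of FOXO1, and the 100% reference was DMSO-only with all plasmids.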

SMILES	IC50 [nM]
C[C@@H]1CN(c2ccc(C(=O)Nc3cc(-c4nc5ccccc5[nH]4)n(C)n3)cn2)C[C@H](C)N1 [Compound A-255, N-[5-(1H-benzimidazol-2-yl)-1-methyl-pyrazol-3-yl]-6-[(3R,5S)-3,5-dimethylpiperazin-1-yl]pyridine-3-carboxamide]	< 100
COCCOc1ccc2[nH]c(-c3cc(NC(=O)c4ccc(OC)c(Cl)c4)n[nH]3)nc2c1 [Compound A-256, 3-chloro-4-methoxy-N-[5-[5-(2-methoxyethoxy)-1H-benzimidazol-2-yl]-1H-pyrazol-3-yl]benzamide]	< 100
Cn1nc(NC(=O)c2ccc(N3CCNC(CO)C3)nc2)cc1-c1nc2ccccc2[nH]1 (stereo not drawn) [Compound A-258, N-[5-(1H-benzimidazol-2-yl)-1-methyl-pyrazol-3-yl]-6-[3-(hydroxy-methyl)piperazin-1-yl]pyridine-3-carboxamide]	300 to 1000
Cn1nc(NC(=O)c2ccc(N3CCN(CC(C)(C)O)CC3)cc2)cc1-c1nc2ccccc2[nH]1 [Compound A-259, N-[5-(1H-benzimidazol-2-yl)-1-methyl-pyrazol-3-yl]-4-[4-(2-hydroxy-2-methyl-propyl)piperazin-1-yl]benzamide]	< 100
COc1ccc(C(=O)Nc2cc(-c3nc4cc(N5CCN(C)CC5)ccc4[nH]3)[nH]n2)cc1Cl [Compound A-261, 3-chloro-4-methoxy-N-[5-[5-(4-methylpiperazin-1-yl)-1H-benzimidazol-2-yl]-1H-pyrazol-3-yl]benzamide]	< 100
Cc1nc(N2CCOC(CO)C2)ccc1C(=O)Nc1cc(-c2nc3ccccc3[nH]2)n(C)n1 (stereo not drawn) [Compound A-262, N-[5-(1H-benzimidazol-2-yl)-1-methyl-pyrazol-3-yl]-6-[2-(hydroxy-methyl)morpholin-4-yl]-2-methyl-pyridine-3-carboxamide]	100 to 300
Cc1nc(N2CCN(C3COC3)CC2)ccc1C(=O)Nc1cc(-c2nc3ccccc3[nH]2)n(C)n1 [Compound A-264, N-[5-(1H-benzimidazol-2-yl)-1-methyl-pyrazol-3-yl]-2-methyl-6-[4-(oxetan-3-yl)piperazin-1-yl]pyridine-3-carboxamide]	300 to 1000
COc1ccc(C(=O)Nc2cc(-c3nc4cc(N5CCOCC5)ccc4[nH]3)[nH]n2)cc1Cl [Compound A-265, 3-chloro-4-methoxy-N-[15-(5-morpholino-1H-benzimidazol-2-yl)-1H-pyrazol-3-yl]benzamide]	< 100
Cn1nc(NC(=O)c2ccc(N3C[C@H]4COC[C@H]4C3)nc2)cc1-c1nc2ccccc2[nH]1 [Compound A-267, 6-[(3aR,6aS)-1,3,3a,4,6,6a-hexahydrofuro[3,4-c]pyrrol-5-yl]-N-[5-(1H-benzimidazol-2-yl)-1-methyl-pyrazol-3-yl]pyridine-3-carboxamide]	< 100
Cn1nc(NC(=O)c2ccc(N3CC4(CC(O)C4)C3)nc2)cc1-c1nc2ccccc2[nH]1 [Compound A-274, N-[5-(1H-benzimidazol-2-yl)-1-methyl-pyrazol-3-yl]-6-(6-hydroxy-2-azaspiro[3.3]heptan-2-yl)pyridine-3-carboxamide]	100 to 300
COc1ccc(C(=O)Nc2cc(-c3nc4cc(OCCO)ccc4[nH]3)[nH]n2)cc1Cl [Compound A-277, 3-chloro-N-[5-[5-(2-hydroxyethoxy)-1H-benzimidazol-2-yl]-1H-pyrazol-3-yl]-4-methoxy-benzamide]	< 100
C[C@@H]1CN(c2ccc(C(=O)Nc3cc(-c4nc5ccccc5[nH]4)n(C)n3)cn2)C[C@H](C)N1CCO [Compound A-278, N-[5-(1H-benzimidazol-2-yl)-1-methyl-pyrazol-3-yl]-6-[(3R,5S)-4-(2-hydroxyethyl)-3,5-dimethyl-piperazin-1-yl]pyridine-3-carboxamide]	100 to 300

The remaining lines, values ahead:

IC50 [nM]	SMILES
> 1000	CC(=O)N1CCN(c2ccc(C(=O)Nc3cc(-c4nc5ccccc5[nH]4)n(C)n3)cn2)CC1CO (stereo not drawn) [Compound A-254, 6-14-acetyl-3-(hydroxymethyl)piperazin-1-yl-N-[5-(1H-benzimidazol-2-yl)-1-methyl-pyrazol-3-yl]pyridine-3-carboxamide]
100 to 300	[2H]C([2H])([2H])OCCN1CCN(c2ccc(C(=O)Nc3cc(-c4nc5ccccc5[nH]4)n(C)n3)cn2)CC1 [Compound A-260, N-[5-(1H-benzimidazol-2-yl)-1-methyl-pyrazol-3-yl]-6-[4-[2-(trideuterio-methoxy)ethyl]piperazin-1-yl]pyridine-3-carboxamide]
100 to 300	CN1CCN(c2ccc(C(=O)Nc3cc(-c4nc5ccccc5[nH]4)n(C)n3)cn2)CC1CO (stereo not drawn) [Compound A-263, N-[5-(1H-benzimidazol-2-yl)-1-methyl-pyrazol-3-yl]-6-[3-(hydroxy-methyl)-4-methyl-piperazin-1-yl]pyridine-3-carboxamide]
< 100	Cn1nc(NC(=O)c2ccc(N3CCN(CCOC4CC4)CC3)nc2)cc1-c1nc2ccccc2[nH]1 [Compound A-266, N-[5-(1H-benzimidazol-2-yl)-1-methyl-pyrazol-3-yl]-6-[4-[2-(cyclo-propoxy)ethyl]piperazin-1-yl]pyridine-3-carboxamide]
100 to 300	Cn1nc(NC(=O)c2ccc(N3CCC4(COC4)C3)nc2)cc1-c1nc2ccccc2[nH]1 [Compound A-268, N-[5-(1H-benzimidazol-2-yl)-1-methyl-pyrazol-3-yl]-6-(2-oxa-7-azaspiro[3.4]octan-7-yl)pyridine-3-carboxamide]
100 to 300	Cn1nc(NC(=O)c2ccc(N3CCN(C(=O)CO)CC3)nc2)cc1-c1nc2ccccc2[nH]1 [Compound A-269, N-[5-(1H-benzimidazol-2-yl)-1-methyl-pyrazol-3-yl]-6-[4-(2-hydroxyacetyl)piperazin-1-yl]pyridine-3-carboxamide]
300 to 1000	Cn1nc(NC(=O)c2ccc(N3CC(CO)C3)nc2)cc1-c1nc2ccccc2[nH]1 [Compound A-270, N-[5-(1H-benzimidazol-2-yl)-1-methyl-pyrazol-3-yl]-6-[3-(hydroxymethyl)azetidin-1-yl]pyridine-3-carboxamide]
100 to 300	COCC(=O)N1CCN(c2ccc(C(=O)Nc3cc(-c4nc5ccccc5[nH]4)n(C)n3)cn2)CC1 [Compound A-271]
< 100	COCC1CN(c2ccc(C(=O)Nc3cc(-c4nc5ccccc5[nH]4)n(C)n3)cn2)C1 [Compound A-272, N-[5-(1H-benzimidazol-2-yl)-1-methyl-pyrazol-3-yl]-6-[3-(methoxymethyl)azetidin-1-yl]pyridine-3-carboxamide]
100 to 300	Cn1nc(NC(=O)c2ccc(N3CCC4(CCCO4)CC3)nc2)cc1-c1nc2ccccc2[nH]1 [Compound A-273, N-[5-(1H-benzimidazol-2-yl)-1-methyl-pyrazol-3-yl]-6-(1-oxa-8-azaspiro[4.5]decan-8-yl)pyridine-3-carboxamide]
100 to 300	Cn1nc(NC(=O)c2ccc(N3CC4(COC4)C3)nc2)cc1-c1nc2ccccc2[nH]1 [Compound A-275, N-[5-(1H-benzimidazol-2-yl)-1-methyl-pyrazol-3-yl]-6-(2-oxa-6-azaspiro[3.3]heptan-6-yl)pyridine-3-carboxamide]
< 100	Cn1nc(NC(=O)c2ccc(N3CCN4C(=O)OCC4C3)nc2)cc1-c1nc2ccccc2[nH]1 (stereo not drawn) [Compound A-276, N-[5-(1H-benzimidazol-2-yl)-1-methyl-pyrazol-3-yl]-6-(3-oxo-5,6,8,8a-tetrahydro-1H-oxazolo[3,4-a]pyrazin-7-yl)pyridine-3-carboxamide]
